Experimental findings from patent US4822879A, “Enzyme-inhibitory griseolic acid derivatives, and their use” (Sankyo Company Limited, priority 1984, dated 1989) are described below.

The nature of series [1]: Water solubility (stated in words). It counts as physicochemical.
A further series addresses cAMP PDE. Description: Enzyme inhibitory activity, cAMP PDE (crude enzymatic solution from rat brains). The class given is biochemical. Conditions: for IC50: 14C-labeled cAMP substrate 0.14 μmoles, pH 8.0, 30° C., 20 minutes, read-out: I50 (50% inhibition value); for potency relative to papaverine: ratio to papaverine. The protocol:
The enzyme inhibitory activity of dihydrodesoxygriseolic acid was measured, as was that of griseolic acid itself and that of the known cAMP PDE inhibitor, papaverine, for purposes of comparison.
The test was carried out following essentially the method of A. L. Pichard and Y. U. Chung [Journal of Biological Chemistry, 251, 5726-5737 (1976)]. A crude enzymatic solution derived from rat brains was used as the source of cAMP PDE.
^14 C-labeled cAMP was used as the substrate. It was employed in a 0.2M Tris-hydrochloric acid buffer solution (pH 8.0) in an amount sufficient to provide a final concentration of 0.14 μmoles. "Tris" is tris(hydroxymethyl)aminomethane. The substrate solution was mixed with an appropriate amount of the compound under test dissolved in 2-5 μl of dimethyl sulfoxide and with 20 μl of a snake venom solution and 40 μl of the crude enzyme solution. Sufficient Tris-hydrochloric acid buffer was added to make a total volume of 100 μl. The mixture was allowed to react at 30° C. for 20 minutes. At the end of this time, the reaction mixture was treated with an Amberlite (trademark) IRP-58 resin and the level of residual adenosine radioactivity in the product was determined.
The results are shown in the following Table 1, in which the I50 values are given in μmoles.

The subject of series [2] is male mice of the ddY strain. Put plainly: Acute toxicity, intravenous, mice. Conditions: in words, from Table 2. The source says:
The compounds under test were griseolic acid and dihydrodesoxygriseolic acid. The test animals were male mice of the ddY strain, 5 weeks of age and weighing 24.25 g. The mice were employed in groups of 3 or 5 animals for each test.
Administration was intravenous.
The results are reported in Table 2, in the form "a/b", where "a" is the number of deceased animals in the test group at the end of the test and "b" is the total number of animals in the relevant test group.

On to `Nc1ncnc2c1ncn2C1OC2CC(CC(=O)O)(C(=O)O)OC2C1O` (centres unmarked) [dihydrodesoxygriseolic acid], for which the water solubility result in series [1] is recorded as “water-soluble”. Moreover, the IC50 on cAMP PDE was 120 nM. Besides, the “inhibitory activity compared with griseolic acid” value in the series on cAMP PDE (in words, from Table 1) is listed as “comparable with that of griseolic acid”. In addition, the “potency relative to papaverine” value in the series on cAMP PDE (from Table 1) is given as “about 20 times”. In addition, the “toxicity compared with griseolic acid” value in series [2] is on record as “substantially less toxic than griseolic acid”.
Take `COc1ccc(Cc2nccc3cc(OC)c(OC)cc23)cc1OC` [papaverine, reference compound]: the IC50 on cAMP PDE was found to be 3500 nM.
As to `Nc1ncnc2c1ncn2[C@@H]1OC2=C[C@@](C(=O)O)(C(O)C(=O)O)O[C@H]2[C@H]1O` (some centres unmarked) [griseolic acid], on cAMP PDE, the IC50 was 160 nM. In the series on cAMP PDE (from Table 1), the “potency relative to papaverine” value is “about 20 times”.
